From the NIST ThermoML archive (doi:10.1021/je5009334)
Numbers after ± are expanded uncertainties.

Assay: xn = mol fraction of the nth substance listed
Settings: 101 kPa, Liquid; for speed of sound: Sing-around technique in a fixed-path interferometer; for mass density: Vibrating tube method

CCC(O)CO (stereo not given) [1,2-butanediol] + OCc1ccccc1
Settings	mass density [kg/m3]	speed of sound [m/s]
298.15 K, x2 = 0	998.492 ± 0.23	1452.6 ± 1.3
298.15 K, x2 = 0.1	1003.29 ± 0.23	1460.7 ± 1.3
298.15 K, x2 = 0.2	1007.97 ± 0.24	1469.2 ± 1.3
298.15 K, x2 = 0.3	1012.52 ± 0.24	1477.2 ± 1.3
298.15 K, x2 = 0.4	1016.95 ± 0.24	1485.3 ± 1.3
298.15 K, x2 = 0.5	1021.24 ± 0.25	1493.2 ± 1.3
298.15 K, x2 = 0.6	1025.4 ± 0.25	1500.6 ± 1.3
298.15 K, x2 = 0.7	1029.45 ± 0.26	1507.6 ± 1.3
298.15 K, x2 = 0.8	1033.41 ± 0.26	1514 ± 1.3
298.15 K, x2 = 0.9	1037.31 ± 0.26	1519.9 ± 1.3
303.15 K, x2 = 0	994.744 ± 0.23	1438.2 ± 1.3
303.15 K, x2 = 0.1	999.491 ± 0.23	1445.9 ± 1.3
303.15 K, x2 = 0.2	1004.13 ± 0.23	1454.3 ± 1.3
303.15 K, x2 = 0.3	1008.65 ± 0.24	1462.1 ± 1.3
303.15 K, x2 = 0.4	1013.06 ± 0.24	1470.3 ± 1.3
303.15 K, x2 = 0.5	1017.34 ± 0.25	1478 ± 1.3
303.15 K, x2 = 0.6	1021.49 ± 0.25	1485.2 ± 1.3
303.15 K, x2 = 0.7	1025.54 ± 0.25	1491.7 ± 1.3
303.15 K, x2 = 0.8	1029.5 ± 0.26	1498 ± 1.3
303.15 K, x2 = 0.9	1033.42 ± 0.26	1503.9 ± 1.3
308.15 K, x2 = 0	990.956 ± 0.23	1423.6 ± 1.3
308.15 K, x2 = 0.1	995.66 ± 0.23	1431.2 ± 1.3
308.15 K, x2 = 0.2	1000.26 ± 0.23	1439.4 ± 1.3
308.15 K, x2 = 0.3	1004.76 ± 0.23	1446.8 ± 1.3
308.15 K, x2 = 0.4	1009.14 ± 0.24	1454.9 ± 1.3
308.15 K, x2 = 0.5	1013.4 ± 0.24	1462.5 ± 1.3
308.15 K, x2 = 0.6	1017.55 ± 0.25	1469.4 ± 1.3
308.15 K, x2 = 0.7	1021.6 ± 0.25	1476 ± 1.3
308.15 K, x2 = 0.8	1025.58 ± 0.25	1482.2 ± 1.3
308.15 K, x2 = 0.9	1029.52 ± 0.25	1488.1 ± 1.3
313.15 K, x2 = 0	987.136 ± 0.23	1409.2 ± 1.3
313.15 K, x2 = 0.1	991.786 ± 0.23	1416.7 ± 1.3
313.15 K, x2 = 0.2	996.372 ± 0.23	1424.4 ± 1.3
313.15 K, x2 = 0.3	1000.84 ± 0.23	1431.8 ± 1.3
313.15 K, x2 = 0.4	1005.2 ± 0.24	1439.7 ± 1.3
313.15 K, x2 = 0.5	1009.46 ± 0.24	1447.1 ± 1.3
313.15 K, x2 = 0.6	1013.6 ± 0.24	1453.9 ± 1.3
313.15 K, x2 = 0.7	1017.66 ± 0.25	1460.4 ± 1.3
313.15 K, x2 = 0.8	1021.64 ± 0.25	1466.6 ± 1.3
313.15 K, x2 = 0.9	1025.6 ± 0.25	1472.5 ± 1.3
318.15 K, x2 = 0	983.284 ± 0.23	1394.6 ± 1.2
318.15 K, x2 = 0.1	987.894 ± 0.23	1401.9 ± 1.2
318.15 K, x2 = 0.2	992.45 ± 0.23	1409.5 ± 1.3
318.15 K, x2 = 0.3	996.891 ± 0.23	1416.7 ± 1.3
318.15 K, x2 = 0.4	1001.24 ± 0.23	1424.3 ± 1.3
318.15 K, x2 = 0.5	1005.48 ± 0.24	1431.4 ± 1.3
318.15 K, x2 = 0.6	1009.62 ± 0.24	1438.2 ± 1.3
318.15 K, x2 = 0.7	1013.68 ± 0.24	1444.8 ± 1.3
318.15 K, x2 = 0.8	1017.69 ± 0.24	1451 ± 1.3
318.15 K, x2 = 0.9	1021.67 ± 0.25	1456.9 ± 1.3
323.15 K, x2 = 0	979.394 ± 0.23	1380 ± 1.2
323.15 K, x2 = 0.1	983.969 ± 0.23	1387.2 ± 1.2
323.15 K, x2 = 0.2	988.488 ± 0.23	1394.3 ± 1.2
323.15 K, x2 = 0.3	992.923 ± 0.23	1401.7 ± 1.3
323.15 K, x2 = 0.4	997.257 ± 0.23	1409.1 ± 1.3
323.15 K, x2 = 0.5	1001.49 ± 0.23	1416.2 ± 1.3
323.15 K, x2 = 0.6	1005.63 ± 0.24	1423.1 ± 1.3
323.15 K, x2 = 0.7	1009.7 ± 0.24	1429.5 ± 1.3
323.15 K, x2 = 0.8	1013.72 ± 0.24	1435.7 ± 1.3
323.15 K, x2 = 0.9	1017.72 ± 0.24	1441.6 ± 1.3

OCCc1ccccc1 [2-phenylethanol] + CCC(O)CO
Settings	mass density [kg/m3]	speed of sound [m/s]
298.15 K, x1 = 0.1	1000.43 ± 0.23	1461.6 ± 1.3
298.15 K, x1 = 0.2	1002.46 ± 0.23	1471.1 ± 1.3
298.15 K, x1 = 0.3	1004.33 ± 0.23	1479.4 ± 1.3
298.15 K, x1 = 0.4	1006.16 ± 0.24	1487.8 ± 1.3
298.15 K, x1 = 0.5	1007.9 ± 0.24	1495.7 ± 1.3
298.15 K, x1 = 0.6	1009.62 ± 0.24	1502.9 ± 1.3
298.15 K, x1 = 0.7	1011.27 ± 0.24	1509.7 ± 1.3
298.15 K, x1 = 0.8	1012.87 ± 0.24	1515.6 ± 1.3
298.15 K, x1 = 0.9	1014.52 ± 0.24	1521.3 ± 1.3
298.15 K, x1 = 1	1016.14 ± 0.24	1526.1 ± 1.3
303.15 K, x1 = 0.1	996.641 ± 0.23	1446.7 ± 1.3
303.15 K, x1 = 0.2	998.651 ± 0.23	1456.2 ± 1.3
303.15 K, x1 = 0.3	1000.5 ± 0.23	1464.1 ± 1.3
303.15 K, x1 = 0.4	1002.32 ± 0.23	1472.3 ± 1.3
303.15 K, x1 = 0.5	1004.07 ± 0.23	1480 ± 1.3
303.15 K, x1 = 0.6	1005.79 ± 0.24	1487.1 ± 1.3
303.15 K, x1 = 0.7	1007.45 ± 0.24	1494.1 ± 1.3
303.15 K, x1 = 0.8	1009.06 ± 0.24	1499.7 ± 1.3
303.15 K, x1 = 0.9	1010.73 ± 0.24	1505.3 ± 1.3
303.15 K, x1 = 1	1012.39 ± 0.24	1510.5 ± 1.3
308.15 K, x1 = 0.1	992.825 ± 0.23	1431.8 ± 1.3
308.15 K, x1 = 0.2	994.816 ± 0.23	1441.2 ± 1.3
308.15 K, x1 = 0.3	996.652 ± 0.23	1448.9 ± 1.3
308.15 K, x1 = 0.4	998.462 ± 0.23	1456.9 ± 1.3
308.15 K, x1 = 0.5	1000.2 ± 0.23	1464.5 ± 1.3
308.15 K, x1 = 0.6	1001.93 ± 0.23	1471.4 ± 1.3
308.15 K, x1 = 0.7	1003.61 ± 0.23	1478.4 ± 1.3
308.15 K, x1 = 0.8	1005.25 ± 0.23	1483.8 ± 1.3
308.15 K, x1 = 0.9	1006.92 ± 0.24	1489.5 ± 1.3
308.15 K, x1 = 1	1008.61 ± 0.24	1494.7 ± 1.3
313.15 K, x1 = 0.1	988.976 ± 0.23	1417.1 ± 1.3
313.15 K, x1 = 0.2	990.951 ± 0.23	1426.2 ± 1.3
313.15 K, x1 = 0.3	992.775 ± 0.23	1433.8 ± 1.3
313.15 K, x1 = 0.4	994.579 ± 0.23	1441.5 ± 1.3
313.15 K, x1 = 0.5	996.32 ± 0.23	1449 ± 1.3
313.15 K, x1 = 0.6	998.053 ± 0.23	1455.8 ± 1.3
313.15 K, x1 = 0.7	999.73 ± 0.23	1462.3 ± 1.3
313.15 K, x1 = 0.8	1001.39 ± 0.23	1468.1 ± 1.3
313.15 K, x1 = 0.9	1003.09 ± 0.23	1473.8 ± 1.3
313.15 K, x1 = 1	1004.75 ± 0.23	1479.2 ± 1.3
318.15 K, x1 = 0.1	985.093 ± 0.23	1402.3 ± 1.2
318.15 K, x1 = 0.2	987.058 ± 0.23	1411.3 ± 1.3
318.15 K, x1 = 0.3	988.872 ± 0.23	1418.7 ± 1.3
318.15 K, x1 = 0.4	990.674 ± 0.23	1426.3 ± 1.3
318.15 K, x1 = 0.5	992.412 ± 0.23	1433.5 ± 1.3
318.15 K, x1 = 0.6	994.121 ± 0.23	1440.5 ± 1.3
318.15 K, x1 = 0.7	995.794 ± 0.23	1446.4 ± 1.3
318.15 K, x1 = 0.8	997.515 ± 0.23	1452.4 ± 1.3
318.15 K, x1 = 0.9	999.245 ± 0.23	1458.1 ± 1.3
318.15 K, x1 = 1	1000.93 ± 0.23	1463.2 ± 1.3
323.15 K, x1 = 0.1	981.261 ± 0.23	1388.2 ± 1.2
323.15 K, x1 = 0.2	983.126 ± 0.23	1396 ± 1.3
323.15 K, x1 = 0.3	984.949 ± 0.23	1403.8 ± 1.3
323.15 K, x1 = 0.4	986.752 ± 0.23	1411.3 ± 1.3
323.15 K, x1 = 0.5	988.495 ± 0.23	1418.6 ± 1.3
323.15 K, x1 = 0.6	990.215 ± 0.23	1425.2 ± 1.3
323.15 K, x1 = 0.7	991.945 ± 0.23	1431.3 ± 1.3
323.15 K, x1 = 0.8	993.644 ± 0.23	1437.1 ± 1.3
323.15 K, x1 = 0.9	995.386 ± 0.23	1442.8 ± 1.3
323.15 K, x1 = 1	997.075 ± 0.23	1447.7 ± 1.3
